Laboratory results as given in patent publication US7705030B2, “Amino-5-(5-membered)hetero-arylimidazolone compounds and the use thereof for β-secretase modulation” (Wyeth LLC, priority 2005, dated 2010).

Columns and labels:
human BACE1 = human BACE1 (Homo sapiens, UniProt P56817); assay: Fluorescent kinetic assay: Evaluation of BACE-1 Binding Affinity of Test Compounds; format: biochemical; conditions: 10 nM enzyme, 25 μM substrate WABC-6, 50 mM Na-Acetate pH 4.5, room temperature
Protocol: Evaluation of BACE-1 Binding Affinity of Test Compounds
Fluorescent Kinetic Assays
Final Assay Conditions: 10 nM human BACE1 (or 10 nM Murine BACE1, 1.5 nM human BACE2), 25 μM substrate (WABC-6, MW 1549.6, from AnaSpec), Buffer: 50 mM Na-Acetate, pH 4.5, 0.05% CHAPS, 25% PBS, room temperature. Na-Acetate was from Aldrich, Cat.# 24, 124-5, CHAPS was from Research Organics, Cat. # 1304C 1×, PBS was from Mediatech (Cellgro), Cat# 21-031-CV, peptide substrate Abz[…]pa was from AnaSpec, Peptide Name: WABC-6 Determination of stock substrate (Abz[…]pa) concentration: ˜25 mM stock solution is made in DMSO using the peptide weight and MW, and diluted to ˜25 μM (1:1000) in 1×PBS. Concentration is determined by absorbance at 354 nm using an extinction coefficient ε of 18172 M^−1 cm^−1, the concentration of stock substrate is corrected, and the substrate stock stored in small aliquots in −80° C. [Substrate Stock]=ABS^354 nm*10^6/18172 (in […]) The extinction coefficient ε^354 nm was adapted from TACE peptide substrate, which had the same quencher-fluorophore pair.
Determination of Stock Enzyme Concentration: the stock concentration of each enzyme is determined by absorbance at 280 nm using an ε of 64150 M^−1 cm^−1 for hBACE1 and MuBACE1, 62870 M^−1 cm^−1 for hBACE2 in 6 M Guanidinium Hydrochloride (from Research Organics, Cat. # 5134G-2), pH ˜6. The extinction coefficient ε^280 nm for each enzyme was calculated based on known amino acid composition and published extinction coefficients for Trp ([…]) and Tyr ([…]) residues (Anal. Biochem. 182, 319-326).
Dilution and mixing steps: total reaction volume: 100 μL
2× inhibitor dilutions in buffer A(66.7 mM Na-Acetate, pH 4.5, 0.0667% CHAPS) were prepared,
4× enzyme dilution in buffer A(66.7 mM Na-Acetate, pH 4.5, 0.0667% CHAPS) were prepared,
100 μM substrate dilution in 1×PBS was prepared, and
50 μL 2× Inhibitor, 25 μL 100 μM substrate are added to each well of 96-well plate (from DYNEX Technologies, VWR #: 11311-046), immediately followed by 25 μL 4× enzyme (added to the inhibitor and substrate mix), and the fluorescence readings are initiated.
Fluorescence Readings: Readings at λex 320 nm and λem 420 nm are taken every 40 sec for 30 min at room temperature and the linear slope for substrate cleavage rate (vi) determined.
Testing at least 10 different inhibitor concentrations is preferred.

Sequence of human BACE1 (P56817 46-501): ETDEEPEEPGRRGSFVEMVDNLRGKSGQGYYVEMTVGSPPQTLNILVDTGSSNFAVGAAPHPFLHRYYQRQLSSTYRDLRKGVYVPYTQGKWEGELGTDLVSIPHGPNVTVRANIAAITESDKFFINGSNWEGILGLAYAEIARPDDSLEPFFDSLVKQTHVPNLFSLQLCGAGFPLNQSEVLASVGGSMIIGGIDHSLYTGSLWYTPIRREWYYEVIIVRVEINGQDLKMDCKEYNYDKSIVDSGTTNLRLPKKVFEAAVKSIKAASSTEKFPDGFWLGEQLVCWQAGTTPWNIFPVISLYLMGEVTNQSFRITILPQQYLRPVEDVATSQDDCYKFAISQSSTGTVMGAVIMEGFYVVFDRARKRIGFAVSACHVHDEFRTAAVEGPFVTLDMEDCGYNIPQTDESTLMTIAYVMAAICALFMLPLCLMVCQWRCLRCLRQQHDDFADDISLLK

Row | IC50 (human BACE1) | melting point | SMILES
1 | 10 to 100 nM | 213 °C | CN1C(=O)C(c2ccsc2)(c2cccc(-c3cccnc3F)c2)N=C1N (stereo not drawn) [Example 34]
2 | > 1000 nM | 140 °C | Cc1nc(F)ccc1-c1cccc(C2(c3ccsc3)N=C(N)N(C)C2=O)c1 (stereo not drawn) [Example 36]
3 | 10 to 100 nM | 197 °C | COc1cncc(-c2cccc(C3(c4ccsc4)N=C(N)N(C)C3=O)c2)c1 (stereo not drawn) [Example 37]
4 | 110 to 1000 nM | 234 to 237 °C | CN1C(=O)C(c2cccc(-c3cncnc3)c2)(c2cscn2)N=C1N (stereo not drawn) [Example 41, 2-Amino-3-methyl-5-(3-pyrimidin-5-ylphenyl)-5-(1,3-thiazol-4-yl)-3,5-dihydro-4H-imidazol-4-one]
5 | 110 to 1000 nM | 100 to 102 °C | CCn1ccc(C2(c3cccc(-c4cncnc4)c3)N=C(N)N(C)C2=O)c1 (stereo not drawn) [Example 52, 2-amino-5-(1-ethyl-1H-pyrrol-3-yl)-3-methyl-5-(3-pyrimidin-5-ylphenyl)-3,5-dihydro-4H-imidazol-4-one]
6 | 110 to 1000 nM | 103 to 105 °C | CN1C(=O)C(c2cccc(-c3cncnc3)c2)(c2ccn(CC(F)(F)F)c2)N=C1N (stereo not drawn) [Example 54]
7 | > 1000 nM | 98 to 100 °C | CN1C(=O)C(c2cc[nH]c2)(c2cccc(OCc3ccccc3)c2)N=C1N (stereo not drawn) [Example 58, 2-amino-5-(3-benzyloxyphenyl)-5-(1H-pyrrol-3-yl)-3-methyl-3,5-dihydro-4H-imidazol-4-one]
8 | > 1000 nM | 142 to 145 °C | CN1C(=O)C(c2cc[nH]c2)(c2cccc(O)c2)N=C1N (stereo not drawn) [Example 59, 2-amino-5-(3-hydroxyphenyl)-5-(1H-pyrrol-3-yl)-3-methyl-3,5-dihydro-4H-imidazol-4-one]
9 | 10 to 100 nM | 195 to 197 °C | CN1C(=O)C(c2cccc(-c3cccnc3F)c2)(c2cnn(CCF)c2)N=C1N (stereo not drawn) [Example 68, 2-amino-5-[1-(2-fluoroethyl)-1H-pyrazol-4-yl]-5-[3-(2-fluoropyridin-3-yl)phenyl]-3-methyl-3,5-dihydro-4H-imidazol-4-one]
10 | 10 to 100 nM | 104 to 106 °C | CN1C(=O)C(c2cccc(-c3cccnc3F)c2)(c2cnn(CC(F)(F)F)c2)N=C1N (stereo not drawn) [Example 69, 2-amino-5-[3-(2-fluoropyridin-3-yl)phenyl]-3-methyl-5-[1-(2,2,2-trifluoroethyl)-1H-pyrazol-4-yl]-3,5-dihydro-4H-imidazol-4-one]
11 | 110 to 1000 nM | 70 to 72 °C | CN1C(=O)C(c2cccc(OCC3CC3)c2)(c2cnn(CCF)c2)N=C1N (stereo not drawn) [Example 70, 2-amino-5-[3-(cyclopropylmethoxy)phenyl]-5-[1-(2-fluoroethyl)-1H-pyrazol-4-yl]-3-methyl-3,5-dihydro-4H-imidazol-4-one]
12 | 110 to 1000 nM | 78 to 80 °C | CN1C(=O)C(c2cccc(OCC3CC3)c2)(c2cnn(CC(F)(F)F)c2)N=C1N (stereo not drawn) [Example 71, 2-amino-5-[3-(cyclopropylmethoxy)phenyl]-3-methyl-5-[1-(2,2,2-trifluoroethyl)-1H-pyrazol-4-yl]-3,5-dihydro-4H-imidazol-4-one]
13 | > 1000 nM | 140 to 142 °C | CN1C(=O)C(c2ccc(OC(F)F)cc2)(c2cnn(CCF)c2)N=C1N (stereo not drawn) [Example 73]
14 | > 1000 nM | 70 to 72 °C | CN1C(=O)C(c2ccc(OC(F)F)cc2)(c2cnn(CC(F)(F)F)c2)N=C1N (stereo not drawn) [Example 74]
15 | > 1000 nM | 74 to 76 °C | CN1C(=O)C(c2ccc(OC(F)F)cc2)(c2cnn(Cc3ccccc3)c2)N=C1N (stereo not drawn) [Example 75]
16 | 10 to 100 nM | 95 to 97 °C | COc1cccc(-c2cccc(C3(c4cnn(CC(F)(F)F)c4)N=C(N)N(C)C3=O)c2)c1 (stereo not drawn) [Example 82]
17 | 10 to 100 nM | 88 to 90 °C | CCOc1cccc(-c2cccc(C3(c4cnn(CC(F)(F)F)c4)N=C(N)N(C)C3=O)c2)c1 (stereo not drawn) [Example 83]
18 | 110 to 1000 nM | 98 to 100 °C | CN1C(=O)C(c2cccc(-c3cc(F)ccc3F)c2)(c2cnn(CC(F)(F)F)c2)N=C1N (stereo not drawn) [Example 84]
19 | 110 to 1000 nM | 104 to 106 °C | COc1ccc(F)cc1-c1cccc(C2(c3cnn(CC(F)(F)F)c3)N=C(N)N(C)C2=O)c1 (stereo not drawn) [Example 85]
20 | 110 to 1000 nM | 118 to 120 °C | CN1C(=O)C(c2cccc(-c3cc(C#N)ccc3F)c2)(c2cnn(CC(F)(F)F)c2)N=C1N (stereo not drawn) [Example 86]

Row | IC50 (human BACE1) | melting point | SMILES
21 | 10 to 100 nM | 103 to 105 °C | CN1C(=O)C(c2cccc(-c3cccc(F)c3F)c2)(c2cnn(CC(F)(F)F)c2)N=C1N (stereo not drawn) [Example 87]
22 | 110 to 1000 nM | 202 to 204 °C | CN1C(=O)C(c2cccc(-c3cccnc3)c2)(c2cnn(CC(F)(F)F)c2)N=C1N (stereo not drawn) [Example 88]
23 | 110 to 1000 nM | 223 to 225 °C | CN1C(=O)C(c2cccc(-c3cncnc3)c2)(c2cnn(CC(F)(F)F)c2)N=C1N (stereo not drawn) [Example 89]
24 | > 1000 nM | 85 to 87 °C | CN1C(=O)C(c2cccc(OCc3ccccc3)c2)(c2cnn(CC(F)(F)F)c2)N=C1N (stereo not drawn) [Example 92, 2-amino-5-[3-(benzyloxy)phenyl]-3-methyl-5-[1-(2,2,2-trifluoroethyl)-1H-pyrazol-4-yl]-3,5-dihydro-4H-imidazol-4-one]
25 | > 1000 nM | 118 to 120 °C | CN1C(=O)C(c2cccc(O)c2)(c2cnn(CC(F)(F)F)c2)N=C1N (stereo not drawn) [Example 93, 2-amino-5-(3-hydroxyphenyl)-3-methyl-5-[1-(2,2,2-trifluoroethyl)-1H-pyrazol-4-yl]-3,5-dihydro-4H-imidazol-4-one]
26 | 10 to 100 nM | 115 to 117 °C | CC(C)n1cc(C2(c3ccc(F)c(-c4cccnc4F)c3)N=C(N)N(C)C2=O)cn1 (stereo not drawn) [Example 97]
27 | 10 to 100 nM | 112 to 114 °C | COc1cccc(-c2cc(C3(c4cnn(C(C)C)c4)N=C(N)N(C)C3=O)ccc2F)c1 (stereo not drawn) [Example 98]
28 | 10 to 100 nM | 75 to 80 °C | CCC(CC)Cn1cc(C2(c3cccc(-c4cccnc4F)c3)N=C(N)N(C)C2=O)cn1 (stereo not drawn) [Example 99]
29 | 10 to 100 nM | 106 to 109 °C | CN1C(=O)C(c2cccc(-c3cccnc3F)c2)(c2cnn(C3CCCC3)c2)N=C1N (stereo not drawn) [Example 100]
30 | 10 to 100 nM | 100 to 103 °C | CN1C(=O)C(c2cccc(-c3cccnc3F)c2)(c2cnn(CCC(C)(C)C)c2)N=C1N (stereo not drawn) [Example 101]
31 | 10 to 100 nM | 86 to 90 °C | CC(C)CCn1cc(C2(c3cccc(-c4cccnc4F)c3)N=C(N)N(C)C2=O)cn1 (stereo not drawn) [Example 102]
32 | 10 to 100 nM | 94 to 97 °C | CN1C(=O)C(c2cccc(-c3cccnc3F)c2)(c2cnn(Cc3ccccc3)c2)N=C1N (stereo not drawn) [Example 103]
33 | 10 to 100 nM | 88 to 90 °C | CN1C(=O)C(c2cccc(-c3cccnc3F)c2)(c2cnn(CCC3CCCCC3)c2)N=C1N (stereo not drawn) [Example 104]
34 | 10 to 100 nM | 112 to 115 °C | CN1C(=O)C(c2cccc(-c3cncnc3)c2)(c2cnn(C3CCCC3)c2)N=C1N (stereo not drawn) [Example 105]
35 | 10 to 100 nM | 93 to 96 °C | CN1C(=O)C(c2cccc(-c3cncnc3)c2)(c2cnn(CCC(C)(C)C)c2)N=C1N (stereo not drawn) [Example 106]
36 | 10 to 100 nM | 102 to 105 °C | CN1C(=O)C(c2cccc(-c3cncnc3)c2)(c2cnn(CCC3CCCCC3)c2)N=C1N (stereo not drawn) [Example 107]
37 | 10 to 100 nM | 87 to 90 °C | CC(C)CCn1cc(C2(c3cccc(-c4cncnc4)c3)N=C(N)N(C)C2=O)cn1 (stereo not drawn) [Example 108]
38 | 110 to 1000 nM | 110 °C | COc1ccc(C2(c3ccc(-c4ccc(F)cc4)s3)N=C(N)N(C)C2=O)cc1C (stereo not drawn) [Example 110, 2-Amino-5-[5-(4-fluorophenyl)thien-2-yl]-5-(4-methoxy-3-methylphenyl)-3-methyl-3,5-dihydro-4H-imidazol-4-one]
39 | 10 to 100 nM | 105 to 112 °C | CCC1(c2cc(C3(c4cccc(-c5cncnc5)c4)N=C(N)N(C)C3=O)cs2)OCCO1 (stereo not drawn) [Example 114]
